Results reported in PubChem BioAssay (NCI).
Values joined by “and” are separate entries in the source; they are usually repeats but may differ in a detail not shown here. Identical values can stand only once.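 Interpolation was linear, between the two tested concentrations surrounding the appropriate level; five concentrations were tested over 48 hours in 96-well plates. At the GI50, growth is halved. The concentration for full growth arrest is given as TGI.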

Columns and labels:
Assay in all cases: inhibition of tumour cell growth, NCI panel, 48 h
SR leukemia = system: SR leukemia
MCF7 breast = system: MCF7 breast
HS 578T breast = system: HS 578T breast
OVCAR-3 ovarian = system: OVCAR-3 ovarian
A498 renal = system: A498 renal
SK-MEL-2 melanoma = system: SK-MEL-2 melanoma
UACC-62 melanoma = system: UACC-62 melanoma
MOLT-4 leukemia = system: MOLT-4 leukemia
OVCAR-4 ovarian = system: OVCAR-4 ovarian
LOX IMVI melanoma = system: LOX IMVI melanoma

SMILES | TGI (SR leukemia) | TGI (MCF7 breast) | TGI (HS 578T breast) | TGI (OVCAR-3 ovarian) | TGI (A498 renal) | TGI (SK-MEL-2 melanoma) | TGI (UACC-62 melanoma) | TGI (MOLT-4 leukemia) | TGI (OVCAR-4 ovarian) | GI50 (OVCAR-3 ovarian) | GI50 (A498 renal) | GI50 (LOX IMVI melanoma) | GI50 (MOLT-4 leukemia) | GI50 (OVCAR-4 ovarian) | TGI (LOX IMVI melanoma) | GI50 (SR leukemia) | GI50 (MCF7 breast) | GI50 (HS 578T breast) | GI50 (UACC-62 melanoma) | GI50 (SK-MEL-2 melanoma)
Clc1ccccc1-c1nc(-c2ccncc2)no1 | > 100 µM | > 100 µM | > 100 µM | > 100 µM | > 100 µM | > 100 µM | > 100 µM | > 100 µM | > 100 µM | – | – | – | – | – | – | – | – | – | – | –
CN(C)CCNC(=O)c1cccc2cc([N+](=O)[O-])ccc12 | 0.132 µM | 15.3 µM | 7.16 µM | 11.7 µM and 2.26 µM | 4.53 µM and 0.91 µM | – | – | 1.25 µM and 0.407 µM | – | 2.36 µM and 0.332 µM | 1.19 µM and 0.185 µM | 0.566 µM and 0.129 µM | 0.292 µM and 0.0829 µM | 2.1 µM and 0.311 µM | – | – | – | – | – | –
Cc1cc2c(=O)cc(-c3ccc(C(F)(F)F)cc3)oc2c(C(=O)O)c1C | – | – | – | > 100 µM | – | > 100 µM | > 100 µM | > 100 µM | > 100 µM | – | – | – | – | – | > 100 µM | – | – | – | – | –
NC1=NN(c2ccccc2)C(=O)C1/C(=N\NC(=O)c1cc2ccccc2cc1O)C(=O)Nc1nc([N+](=O)[O-])cs1 (stereo not drawn) | 58.3 µM | – | – | 98.6 µM | > 100 µM | > 86.6 µM | 56.6 µM | 58.8 µM | > 100 µM | – | – | – | – | – | 55.4 µM | – | – | – | – | –
O=[N+]([O-])c1cccc(/C=C/c2ccccn2)c1 | > 100 µM | > 100 µM | > 100 µM | > 100 µM | > 100 µM | – | > 100 µM | > 100 µM | > 100 µM | 12.4 µM | 7.19 µM | 10.6 µM | > 100 µM | 18.8 µM | > 100 µM | 51.6 µM | 0.569 µM | 32.7 µM | 60 µM | –
COc1cc[c]([Sb]([Br])([CH]=C(C)C)([CH]=C(C)C)[CH]=C(C)C)cc1 | > 100 µM | – | – | – | > 100 µM | 51.3 µM | > 100 µM | > 100 µM | > 100 µM | – | 28.8 µM | 15.7 µM | 10.6 µM | 5.89 µM | > 100 µM | 4.28 µM | – | – | 3.41 µM | 5.79 µM
O=C(c1ccccn1)c1nc(-c2ccc(Cl)c(Cl)c2)nc2ccc(Cl)cc12 | – | – | – | > 100 µM | > 100 µM | > 100 µM | > 100 µM | > 100 µM | > 100 µM | – | – | – | – | – | – | – | – | – | – | –
CCCCCCCCCCCCOC1C(CNCC2OC3OC(C)(C)OC3C2NC(=O)Nc2ccc(C(F)(F)F)cc2)OC2OC(C)(C)OC21 (stereo not drawn) | – | 7.94 µM | 14.1 µM | 13.3 µM | 15.5 µM | 19.3 µM | 15.9 µM | – | 13.2 µM | 4.59 µM | 8.45 µM | 2.89 µM | – | 5.43 µM | 5.65 µM | – | 3.53 µM | 5.39 µM | 8.63 µM | 9.09 µM
N.N.N.N.N.N#N.[Cl-].[Os+7] | > 100 µM | – | – | > 100 µM | – | > 100 µM | > 100 µM | – | > 100 µM | > 100 µM | – | > 100 µM | – | > 100 µM | > 100 µM | > 100 µM | – | – | > 100 µM | > 100 µM
O=c1c2[nH]c3ccccc3c2nc2n1CCS2 | – | > 100 µM | > 100 µM | > 100 µM | > 100 µM | > 100 µM | > 100 µM | – | > 100 µM | > 100 µM | 56 µM | 54.7 µM | – | > 100 µM | > 100 µM | – | > 100 µM | 26.9 µM | 92.7 µM | > 100 µM
Cc1cc(S(N)(=O)=O)c(S/C(=N\Nc2ccc([N+](=O)[O-])cc2)c2ccc(O)cc2)cc1Cl | > 100 µM | 5.06 µM | 9.27 µM | 4.04 µM | 20.5 µM | 53.3 µM | 3.84 µM | > 100 µM | 7.94 µM | 2.06 µM | 7.56 µM | – | 2.97 µM | 3.43 µM | – | 51.6 µM | 2.19 µM | 2.92 µM | 1.79 µM | 3.9 µM
NC(=S)N/N=C1\C(=O)N(CCc2ccccc2)C(=O)C1C(=O)NCCc1ccccc1 (stereo not drawn) | – | – | – | > 100 µM | > 100 µM | > 100 µM | > 100 µM | – | > 100 µM | – | – | – | – | – | > 100 µM | – | – | – | – | –
O=C(N[C@@H]1C=CCC[C@@H]1c1ccccc1)OCc1ccccc1 | 41.7 µM | – | – | 31.2 µM | 39 µM | 32.4 µM | 28 µM | 34.6 µM | 42.4 µM | – | – | – | – | – | 28.9 µM | – | – | – | – | –
O=C(c1ccco1)c1ccccc1C(=O)c1ccco1 | > 100 µM | – | – | > 100 µM | > 100 µM | > 100 µM | > 100 µM | > 100 µM | > 100 µM | – | – | – | – | – | > 100 µM | – | – | – | – | –
COc1cc(-c2nc3ccccc3[nH]2)ccc1OCC(=O)N=Nc1c(O)[nH]c2ccc(Cl)cc12 | 1.05 µM | 2.39 µM | – | 2.2 µM | 5.42 µM | 3.34 µM | 3.18 µM | 3.12 µM | 3.54 µM | 0.96 µM | 2.18 µM | 0.337 µM | 0.827 µM | 2.02 µM | 1.24 µM | 0.292 µM | 0.57 µM | – | 1.72 µM | 1.76 µM
Cc1ccc(Nc2[nH]c(C(=O)c3ccc(Cl)cc3)c(N)c2C(=S)Nc2ccccc2)nc1 | – | > 100 µM | 76.2 µM | 74 µM | 61.8 µM | > 100 µM | 41 µM | > 100 µM | > 100 µM | 29.4 µM | 23.4 µM | 23 µM | 56.3 µM | 63.6 µM | 53.1 µM | – | 33.1 µM | 21.8 µM | 15.3 µM | 28.1 µM
CCOC(=O)/C(=C/c1ccccc1)C(=O)c1ccccc1 | 18 µM | 15.9 µM | 18.8 µM | 20.4 µM | 13.1 µM | – | 9.15 µM | – | 35.4 µM | 8.14 µM | 3.08 µM | 1.8 µM | – | 14.4 µM | 3.82 µM | 3.43 µM | 3.13 µM | 3.03 µM | 2.73 µM | –
